Experimental data: US9346753B2, “Dithiol mucolytic agents” (PARION SCIENCES, INC., priority 2013, dated 2016)
Structures can show the parent of a compound that is named as a salt.

Columns and labels:
[1] = DTNB assay: rate of disulfide bond reduction; format: biochemical; set-up: unit not given here; conditions: 2nd order kinetic
Experimental: DTNB ASSAY: This assay determines the rate which a mucolytic agent can reduce a disulfide bond using 5,5-Dithiobis(2-nitrobenzoic acid). DTNB in various pH buffers and allows comparison of the kinetic rates of reducing agents. First, reducing agent stock solutions (30 mM) were made up in DMSO. Each compound stock solution was diluted, […] in 1 ml 50 mM Tris-HCl buffer, pH 7.5, and then added in a 1:1 volumetric ratio to a solution of 100 mM DTNB in 50 mM Tris-HCl buffer, pH 7.5. Max Abs412 was measured and then utilized to calculate the activity concentration. If the observed activity concentrations differed from expected activity concentrations by more than 5%, the volume was accordingly adjusted to kinetically test the rate in the next step. After having added the reducing agents, diluted in a range of pH buffer solutions (pH 6.0-7.5), to 45 mM DTNB in 50 mM Tris-HCl and measured the Abs412 for 5 min rates were calculated as a 2nd order kinetic.

[2] = system: sheep treated with NE; assay: TMV studies in sheep (neutrophil elastase model of acute bronchitis); format: in vivo; conditions: 1 μmole/kg by aerosol after neutrophil elastase (NE)
Experimental: Test articles were administered to the pulmonary surfaces as an inhalation aerosol. For human neutrophil Elastase (HNE) studies, tracheal mucus velocity (TMV) was measured at 1 and 2 hours after HNE (but before drug); and 1, 30, 60, 90, and 120 minutes post-aerosol administration of Compound G.
The measurements of TMV were made as follows: Eight to 10 radiopaque Teflon disks (˜1 mm in diameter, 0.8 mm thick, and weighing between 1.5-2 mg) were introduced into the trachea via an endotracheal tube (ETT). The particles were insufflated by a catheter connected to a source of compressed air (flow rate of 3-4 ml/min at 50 psi). The catheter was removed following insufflation without contacting the tracheal surface. To minimize the ETT effects on TMV, the cuff was deflated throughout the study except for the period of drug delivery. The disk movements were recorded using videotaped fluoroscopy, and individual disk velocities were calculated by measuring the distance traveled by each disk over a 60-s period. A collar containing radiopaque markers of predetermined length was placed around the animal's neck, which was used as a standard to correct for magnification effects intrinsic to the fluoroscopy unit. The mean value of disk velocities was calculated for each time point. To avoid dehydration, the sheep were periodically gavaged with tap water via a nastrogastric tube. […]

[3] = Elimination of inhaled NAC from the lungs in animal studies; format: in vivo; conditions: inhaled or intranasal, 14C-labeled NAC, administered by inhalation, animal studies (unpublished observation)
Excerpt: NAC, as a topical pulmonary therapeutic agent, is not optimal for the reduction of mucin disulfide bonds. […] For example, in the pH environment of the airway surface (measured in the range of pH 6.0 to 7.2 in CF and COPD airways), NAC exists only partially in its reactive state as a negatively charge thiolate (Jayaraman S, Song Y, Vetrivel L, Shankar L, Verkman A S. Noninvasive in vivo fluorescence measurement of airway-surface liquid depth, salt concentration, and pH. J Clin Invest. 2001; 107(3):317-24) (FIG. 3). […] The relatively low reducing activity at of NAC physiologic airway pH and a the short half-life of NAC on the lung surface provide an explanation for the lack of strong clinical evidence for effective mucus reduction in mucus obstructive diseases.

SMILES	Kinetic Reaction Rates of Reduction of DTNB ([1]; pH 6)	Duration of TMV restoration post-dosing [2]	Tracheal mucus velocity (TMV) ([2]; compared with vehicle)	Kinetic Reaction Rates of Reduction of DTNB ([1]; pH 6.5)	Kinetic Reaction Rates of Reduction of DTNB ([1]; pH 7)	Kinetic Reaction Rates of Reduction of DTNB ([1]; pH 7.5)	half-life [3]
N=C(N)NCCCC[C@@H](N)C(=O)NCCOc1cc(CS)c(CS)cc1OCCNC(=O)[C@H](N)CCCCNC(=N)N [Compound G, (2R,2′R)-N,N′-(2,2′-(4,5-bis(mercaptomethyl)-1,2-phenylene)bis(oxy)bis(ethane-2,1-diyl))bis(2-amino-6-guanidinohexanamide) Hydrochloride]	5154	2 h	restored TMV to normal, pre-NE levels				
CC(=O)N[C@@H](CS)C(=O)O [NAC, N-acetyl cysteine, reference compound]	10			26	69	230	~20 min
